Measured values reported in ChEMBL document CHEMBL5209565, “pH biosensor based assay for SLC16A3 using HEK-293 SLC16A3 OE cells” (2022).

Target: T1, Monocarboxylate transporter 4 (Homo sapiens) (UniProt O15427)
T1 sequence (whole entry): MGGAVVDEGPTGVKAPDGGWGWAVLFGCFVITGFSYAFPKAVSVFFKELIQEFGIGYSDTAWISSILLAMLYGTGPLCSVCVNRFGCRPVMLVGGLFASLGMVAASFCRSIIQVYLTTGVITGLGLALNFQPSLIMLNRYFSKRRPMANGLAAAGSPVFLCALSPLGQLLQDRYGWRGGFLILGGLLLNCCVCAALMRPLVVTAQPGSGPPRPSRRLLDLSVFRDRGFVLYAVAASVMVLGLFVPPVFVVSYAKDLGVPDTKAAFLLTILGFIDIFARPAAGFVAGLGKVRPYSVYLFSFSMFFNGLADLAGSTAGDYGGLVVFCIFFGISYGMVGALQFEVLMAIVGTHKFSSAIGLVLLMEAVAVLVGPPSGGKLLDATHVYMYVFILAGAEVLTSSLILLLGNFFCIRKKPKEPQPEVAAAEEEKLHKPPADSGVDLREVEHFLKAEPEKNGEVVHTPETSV
Experiment: Substrate uptake by the monocarboxylate transporter 4 (MCT4, SLC16A3) as assessed by a sensor pH-sensitive genetically encoded fluorescent sensor (pHAxensor) in HEK-293 JumpIN-SLC16A3 cells (PubChem AID: 1794833)
Assay type: functional, cell-based
Settings: HEK293

CC(O)C(=O)O (stereo unspecified)
proof of principle: Substrate. In Comparison To Wild-Type And Not Induced Cells, Cells With Induced Slc16A3 Expression Showed A Specific Transporter Activity, Upon Substrate Addition, Detected As Decrease Of Intracellular Ph, Recorded As Quenching Of The Sensor Fluorescence Signal.
